Legend:
[1] = target: T1, human red blood cell acetylcholinesterase (RBC AChE) (Homo sapiens, UniProt P22303); experiment: Human RBC AChE inhibition assay (Ellman method, hemolyzed whole blood); assay type: biochemical; conditions: for IC50: hemolyzed samples preincubated with compound for 15 min at 37 °C, three independent experiments in duplicate
T1 construct: from tissue; host or cells: whole blood (hemolyzed, 1:100 in Triton X-100) from one healthy adult volunteer
Description: RBC AChE and BuChE assays were performed on whole human blood and serum, respectively. In this study, all methods were conducted in accordance with guidelines and regulations to comply with the GLP and chemical wastes management established by the Cinvestav-IPN. The sampling protocol was approved by the Bioethics Commission of Nayarit State, Mexico (CEBN/011/2017). The subject gave written informed consent for their participation and blood samples were collected early in the morning. A human blood sample was collected from a healthy adult volunteer from Mexico City.
RBC AChE activity was evaluated according to the method reported by Ellman et al.[12] with some modifications. Briefly, fresh human whole blood samples were diluted (1:100) with Triton X-100 (0.03% in phosphate buffer 0.1 M, pH 7.4). The enzymatic assay media consisted of 500 µL diluted blood, 1 mL of phosphate buffer 0.1 M, pH 7.4, 0.05 mL of DTNB (10 mM), and 5 µL of ethopropazine (6 mM), which were mixed and incubated at 37 °C for 10 min. The reaction was started by the addition of 25 µL of substrate ATCh (28.3 mM) and absorbance was monitored at 436 nm during 3 min with a UV-Vis spectrophotometer (Thermo Scientific GENESYS 10S). AChE activity was corrected for hemoglobin (Hb) content and was reported in U/g Hb. The Hb content was determined at 540 nm using the Drabkin reagent. The molar extinction coefficient of the TNB hydrolysis product was ε = 10,600 M^−1 cm^−1.
To determine the inhibitory effect on human RBC AChE activity, the hemolyzed samples were preincubated with Tem and its metabolites for 15 min at 37 °C. The RBC AChE activity was evaluated as previously described by Bernal-Hernández et al.[13] in three independent experiments conducted in duplicate. Stock solutions of Tem metabolites were individually prepared in ethanol (Tem-SO, 4.14 mM; Tem-dox-SO, 4.44 mM, and Tem-dox-SO2, 4.20 mM). These solutions were used to prepare other diluted solutions in phosphate buffer (0.1 M, pH 7.4) to achieve the following concentrations: 0.1 to 10 μM Tem-SO, 0.05 to 5 μM Tem-dox-SO, and 0.02 to 2 μM Tem-dox-SO2. […] Log IC50, IC50, and R^2 values were estimated from the normalized AChE or BuChE activity with respect to the control assays (absence of the metabolite) and plotted as a function of the logarithm of metabolite concentration using Prism 8 software (GraphPad Software).

[2] = rats, orally administered; cited from earlier work

T1 sequence (P22303 32-617 isoform P22303-2 limits assumed): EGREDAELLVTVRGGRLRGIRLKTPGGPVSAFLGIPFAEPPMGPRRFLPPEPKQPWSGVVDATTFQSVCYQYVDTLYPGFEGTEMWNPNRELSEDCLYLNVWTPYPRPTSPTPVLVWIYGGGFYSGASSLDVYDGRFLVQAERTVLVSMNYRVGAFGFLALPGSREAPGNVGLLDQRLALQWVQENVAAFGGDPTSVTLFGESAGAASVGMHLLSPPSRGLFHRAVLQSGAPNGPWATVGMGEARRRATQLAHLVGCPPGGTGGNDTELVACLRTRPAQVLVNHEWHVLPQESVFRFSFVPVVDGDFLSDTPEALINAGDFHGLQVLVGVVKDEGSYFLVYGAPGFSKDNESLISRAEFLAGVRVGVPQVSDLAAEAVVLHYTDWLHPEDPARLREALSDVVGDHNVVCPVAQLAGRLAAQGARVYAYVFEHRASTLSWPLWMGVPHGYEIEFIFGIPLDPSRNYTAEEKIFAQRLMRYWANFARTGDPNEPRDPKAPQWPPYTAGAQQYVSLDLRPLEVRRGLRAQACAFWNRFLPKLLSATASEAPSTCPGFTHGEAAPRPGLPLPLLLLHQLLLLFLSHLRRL

Row | Structure (SMILES) | effect on human RBC AChE activity ([1]; even at higher concentrations than 50 µM) | absorbed into the bloodstream [2] | IC50 [1] [nM]
1 | COP(=S)(OC)Oc1ccc(Sc2ccc(OP(=S)(OC)OC)cc2)cc1 [Tem, O,O,O′,O′-tetramethyl O,O′-thiodi-p-phenylene bis(phosphorothionate)] | did not exhibit any effect | at least 40% | –
2 | COP(=S)(OC)Oc1ccc([S+]([O-])c2ccc(OP(=S)(OC)OC)cc2)cc1 [Tem-SO] | – | – | 553
3 | COP(=O)(OC)Oc1ccc(S(=O)(=O)c2ccc(OP(=O)(OC)OC)cc2)cc1 [Tem-dox-SO2] | – | – | 24.9
4 | COP(=O)(OC)Oc1ccc([S+]([O-])c2ccc(OP(=O)(OC)OC)cc2)cc1 [Tem-dox-SO] | – | – | 97.7

Source: paper PMC6791832, “In vitro inhibition of human red blood cell acetylcholinesterase (AChE) by temephos-oxidized products” (Scientific Reports, 2019)
